From paper PMC6885504 (American Journal of Cardiovascular Drugs, 2019)
“Also recorded” adds a separate entry of the source. Read-outs that look alike come from different tables or passages of the source.

Columns and labels:
Safety assessments = assay type: in vivo, human; settings: for safety and tolerability: apixaban 10 mg alone and in combination with clarithromycin IR 500 mg bid, healthy adults
CYP3A4 = settings: cited from earlier work
[1] = assay type: in vivo, human
[2] = cited from earlier work
[3] = cited from earlier work; remark: listed apart in the source
[4] = during treatment with the agent alone, of 19 subjects
[5] = whole study (apixaban alone, clarithromycin alone, both together)
[6] = coadministered with multiple doses of clarithromycin vs apixaban alone

SMILES | subjects reporting at least one AE (Safety assessments; [4]) | subjects with AEs considered related to study drug (Safety assessments; [4]) | increase in AUC of midazolam (CYP3A4; clarithromycin as inhibitor) | increase in AUC of midazolam (CYP3A4; ketoconazole as inhibitor) | safety and tolerability (Safety assessments) | safety and tolerability (Safety assessments; listed as apixaban) | subjects experiencing additional AEs (Safety assessments; apixaban and clarithromycin together, of 18 subjects) | bleeding-related AEs, deaths, serious AEs (Safety assessments; [5]) | intensity of adverse events (Safety assessments; [5]) | increase in apixaban AUC(0–T) [1, 6] | increase in apixaban AUC(INF) [1, 6] | increase in apixaban Cmax [1, 6] | time at which apixaban reached maximum concentration after dosing ([1]; concentration–time profiles day 1 and day 8 (Fig. 2)) | change in apixaban exposure ([2]; coadministered with ketoconazole vs apixaban alone) | decrease in apixaban exposure ([2]; coadministered with rifampin vs apixaban alone) | half-life [3] | oral bioavailability [3] | renal clearance as share of total systemic clearance [3]
CC[C@H]1OC(=O)[C@H](C)[C@@H](O[C@H]2C[C@@](C)(OC)[C@@H](O)[C@H](C)O2)[C@H](C)[C@@H](O[C@@H]2O[C@H](C)C[C@H](N(C)C)[C@H]2O)[C@](C)(OC)C[C@@H](C)C(=O)[C@H](C)[C@@H](O)[C@]1(C)O [clarithromycin] | 42.1% | 26.3% | 260–860% |  |  |  |  |  |  |  |  |  |  |  |  |  |  | 
CC(=O)N1CCN(c2ccc(OCC3COC(Cn4ccnc4)(c4ccc(Cl)cc4Cl)O3)cc2)CC1 (stereo not shown) [ketoconazole] |  |  |  | 420–1500% |  |  |  |  |  |  |  |  |  |  |  |  |  | 
COc1ccc(-n2nc(C(N)=O)c3c2C(=O)N(c2ccc(N4CCCCC4=O)cc2)CC3)cc1 [Apixaban] | 5.3% |  |  |  | Apixaban 10 mg alone and in combination with twice-daily clarithromycin immediate release 500 mg was safe and generally well-tolerated by healthy adult volunteers. | safe and generally well-tolerated | 22.2% | no bleeding-related AEs, deaths, or serious AEs | mild | 60% | 60% | 30% | 3 h | approximately doubled; also recorded: twofold | 50% | 12 h | ~50% | ~27%
